According to patent US20200155566A1, “THERAPEUTIC COMBINATION OF A THIRD GENERATION EGFR TYROSINE KINASE INHIBITOR AND A CYCLIN D KINASE INHIBITOR” (Novartis AG, priority 2017, published 2020):

Tests used:
phospho-Rb (Rb S807/811) = assay: Western blot of phospho-Rb after 72 hours of treatment; assay type: cell-based; conditions: PC-14, NCI-H1975, HCC827, HCC4006, immunoblot
Method: Several EGFR mutant NSCLC cell lines were treated for 72 hours with the EGF816 and LEE011 combination at different concentrations as follows. NCI-H1975 (having mutations L858R, T790M), PC-14 (having mutations ex 19 del or exon 19 deletion), HCC827 (having mutation exl9del) and HCC4006 (having mutation exl9del) cells were cultured in RPMI-1640 growth medium (ATCC, catalog number 20-2001), supplemented with 10% fetal bovine serum (GIBCO, catalog number F4135) at 37° C. in a humidified 5% CO2 incubator. For the mechanistic studies, cells were seeded into tissue culture treated 6-well plates (Corning 3506) at a densities of 400k, 400k, 100K and 50k cells per well for HCC827, NCI-H1975, HCC4006 and PC-9 (having mutation exon 19 deletion) respectively, and allowed to attach overnight. The cells were then exposed to a 3×3 matrix combination treatment of EGF816 and LEE011, at concentrations of 0, 0.12, 0.333 μM EGF816 vs. 0, 0.312, 2.5 μM LEE011. […]
Lysate' total protein content was determined by BCA assay (Pierce 23227), following the manufacturer's instructions, and samples were prepared for a western blot using Invitrogen LDS Sample Buffer (NP0007)) containing 200 mM DTT, boiled at 95° C. for 10 minutes, micro-centrifuged and 20 μg total protein loaded per well. […]

[1] = test system: NCI-H1975 tumors (EGFR L858R, T790M); assay: In vivo efficacy study, NCI-H1975 xenograft tumor volume; design: species or system mouse; conditions: Compound A 10 or 30 mg/kg p.o. qd, Compound B 80 mg/kg free base p.o. qd
Method: The tumor cells were cultured in tissue culture flasks in a humidified incubator at 37° C., in an atmosphere of 5% CO2 and 95% air.

CYP3A4/5 = conditions: cited from earlier work
[2] = single agent ribociclib, 3 weeks on/1 week off; cited from earlier work
[3] = test system: phospho-EGFR (EGFR Y1068); assay: Western blot of phospho-EGFR after 72 hours of treatment; assay type: cell-based; conditions: PC-14, NCI-H1975, HCC827, HCC4006, immunoblot
Method: NCI-H1975 (having mutations L858R, T790M), PC-14 (having mutations ex 19 del or exon 19 deletion), HCC827 (having mutation exl9del) and HCC4006 (having mutation exl9del) cells were cultured in RPMI-1640 growth medium (ATCC, catalog number 20-2001), supplemented with 10% fetal bovine serum (GIBCO, catalog number F4135) at 37° C. in a humidified 5% CO2 incubator. For the mechanistic studies, cells were seeded into tissue culture treated 6-well plates (Corning 3506) at a densities of 400k, 400k, 100K and 50k cells per well for HCC827, NCI-H1975, HCC4006 and PC-9 (having mutation exon 19 deletion) respectively, and allowed to attach overnight. […] After 72 hours of treatment, cells were lysed in 100 μl per well RIPA buffer (Sigma R0278) containing protease inhibitor cocktail (Sigma P8340), phosphatase inhibitor cocktail 2(Sigma P5726) and phosphatase inhibitor cocktail 3 (Sigma P0044). Cells were lysed on ice for 10 minutes, with scraping using a Cell Lifter (Corning 3008). Lysates were then micro-centrifuged at 14000rpm in an Eppendorf 5417R micro-centrifuge at 4° C.

[4] = test system: EGFR mutant NSCLC cell lines (PC9, HCC827, HCC4006, MGH707); assay: Long-term viability study (confluence by incucyte zoom, four weeks); assay type: cell-based
Method: PC9 (3,000/well), HCC827 (10,000/well), HCC4006 (5000/well), and MGH707 (5000/well) cells were plated into 96-well plates and the following day treated with EGF816 (300nM) either alone or in combination with LEE011 (1000 nM) for four weeks. Drug was refreshed twice per week. Cell confluence was used as a surrogate for cell number and was measured by an incucyte zoom (Essen Biosciences) at the initiation of treatment and then twice (2x) per week thereafter.

EGFR-mutant NSCLC = conditions: 100 mg daily versus 150 mg daily, previous study; cited from earlier work
[5] = test system: EGFR mutant (L858R, exl9del and T790M) cancer models; conditions: cited from earlier work
[6] = test system: advanced non-small cell lung cancer (NSCLC) harboring T790M; conditions: patients with advanced NSCLC harboring T790M; cited from earlier work
[7] = test system: Epidermal Growth Factor Receptor (EGFR); conditions: L858R, exl9del, T790M versus WT; cited from earlier work

Row | SMILES | Rb phosphorylation (Rb S807/811) (phospho-Rb (Rb S807/811)) | tumor volume changes over time [1] | CYP3A4/5 inhibition (CYP3A4/5) | MTD [2] [mg qd] | EGFR phosphorylation (EGFR Y1068) [3] | regrowth of cells (confluence as surrogate for cell number) ([4]; EGF816 300nM alone or with LEE011 1000 nM) | apoptosis and cell cycle arrest ([4]; EGF816 300nM, PC9, HCC827, HCC4006, MGH707) | rates of rash and diarrhoea (EGFR-mutant NSCLC) | tolerability, body weight ([5]; efficacious doses, xenograft models) | anti-tumor efficacy in xenograft models ([5]; several xenograft models) | antitumor activity in patients [6] | selectivity for mutant EGFR over wild type EGFR [7]
1 | CN(C)C(=O)c1cc2cnc(Nc3ccc(N4CCNCC4)cn3)nc2n1C1CCCC1 [LEE011, 7-cyclopentyl-2-(5-piperazin-1-yl-pyridin-2-ylamino)-7H-pyrrolo[2,3-d]pyrimidine-6-carboxylic acid dimethylamide] | inhibited by LEE011 single agent in 3 out of 4 cell lines | no single agent activity | inhibitor of CYP3A4/5 | 900 |  |  |  |  |  |  |  | 
2 | Cc1cc(C(=O)Nc2nc3cccc(Cl)c3n2[C@@H]2CCCCN(C(=O)/C=C/CN(C)C)C2)ccn1 [EGF816, (R,E)-N-(7-chloro-1-(1-(4-(dimethylamino)but-2-enoyl)azepan-3-yl)-1H-benzo[d]imidazol-2-yl)-2-methylisonicotinamide] |  | significant tumor regressions, which increased at higher doses |  |  | inhibited in a dose dependent manner across all cell lines | begin to slowly regrow | varying degrees of apoptosis and cell cycle arrest | lower rates of rash and diarrhoea were observed at 100 mg daily | well tolerated with no body weight loss observed at efficacious doses | Dose-dependent anti-tumor efficacy | durable antitumor activity | selectively inhibits activating and acquired resistance mutants (L858R, exl9del and T790M), while sparing wild type (WT) EGFR
